According to US20250250298A1, “ONCOLYTIC PEPTIDE AND USE THEREOF” (Rise Biopharmaceuticals Inc., priority 2022, published 2025):
Where a SMILES comes first, the peptide text is derived from it.

Key:
B16-F10 melanoma = format: in vivo; conditions: B16-F10 tumor-bearing C57BL/6 mice
Procedure: FIGS. 1A-1B are schematic diagrams of B16-F10 melanoma experiments. The right flank of the mouse was administrated with SEQ ID NO:9, and the left flank of the mouse was untreated (tumor only) in FIG. 1A. […] (3×10^6B16-F10 cells per mouse/50 μl RPMI-1640). Palpable tumors (20-30 mm^3) were injected […] (IT.) with single doses of SEQ ID NO:9 dissolved in PBS (1.0 mg peptide/50 μl PBS) once a day for 5 consecutive days, and the vehicle control was saline only (0.9% NaCl).
(§1) Female C57BL/6 mice (4- to 6-week old) as allogeneic model animals were purchased from BioLASCO Taiwan Co., Ltd. and maintained in a specific pathogen-free and controlled environment. During the experiments, female mice, weighing 18.0-24.0 g each, were kept in groups of 4 to 6 animals per cage under climate-controlled conditions, with 12 h light/dark cycles and an ambient temperature. The mice were housed in an enriched individually ventilated cage (IVC) system with free access to standard rodent chow and water ad libitum. The animals were anesthetized during the experimental procedures with 2.5% isoflurane gas. The animals were monitored daily. All procedures were conducted according to the regulations of Laboratory Animal Care and Use Committee or Group Setup and Management and the law of Animal Protection.
Palpable tumors (for example, 20-30 mm^3 for B16-F10 tumor-bearing mice, 100 mm^3 for MN-11 tumor-bearing mice, 75 mm^3 for E0771 tumor-bearing mice) were injected (IT.) with single doses of SEQ ID NO:9 dissolved in PBS (1.0 mg peptide/50 μl PBS) once a day for 5 consecutive days, and the vehicle control was saline only (0.9% NaCl).
Tumor size was measured 3 times a week using a caliper, and the volume of tumors was calculated using the following formula: Tumor size (mm^3)=0.5×(width^2×length). The results were shown as volume±SEM. The survival rates of tumor-bearing mice were observed and recorded continuously until all animals died.
To evaluate the effect of SEQ ID NO:9 in vivo, the B16-F10 allogeneic model was used in C57BL/6 mice (FIGS. 1A-1B). […]

[1] = tested on: C9 (Human oral cancer cell); assay: MTT cytotoxicity, C9; format: cell-based; conditions: C9, 24 hours incubation
Source text: (§2) The MTT assay is a colorimetric method for measuring the activity of enzymes in living cells that reduces Thiazolyl blue tetrazolium bromide (MTT) to formazan dyes showing a purple color. In this embodiment, a colorimetric 3-(4.5-dimethylthiazol-2-yl)-2.5-diphenyltetrazodium bromide (MTT) viability assay was used to assess the in vitro cytotoxicity of oncolytic peptides.
(§3) The half inhibition concentration (IC50) is the concentration required by the oncolytic peptides to reach fifty percent inhibition. In one embodiment, the oncolytic peptides were used for IC50 test via MTT colorimetric assay.
(§4) All cancer cell lines were seeded in a 96-well plate with a concentration of 5000-8000 cells/100 μl/well and incubated for 24 hrs. After medium was removed, 100 μl fresh medium containing peptide (ranging from 50 μM to 0.8 μM) was added to the wells. Following 24 hours incubation, fresh medium with MTT (0.5 mg/ml) was replaced and incubated for 3 hours. After medium/MTT was removed, DMSO was added at 100 μl for dissolving the formazan crystal. Cell survival rate was calculated by measuring the absorbance at 540 nm using a Multi-labeled Microplate Reader (Sunrise™, TECAN).

[2] = tested on: HepG2 Cancer Cells (Human hepatocellular carcinoma); assay: MTT cytotoxicity, HepG2; format: cell-based; conditions: HepG2, 24 hours incubation
Source text: as §2, §3, §4

MN-11 fibrosarcoma = format: in vivo; conditions: MN-11 tumor-bearing C57BL/6 mice
Procedure: FIGS. 4A-4B are schematic diagrams of MN-11 fibrosarcoma experiments. FIG. 4A: The right flank of the mouse was administrated with SEQ ID NO:9, and the left flank of the mouse was untreated (tumor only). […] Palpable tumors (100 mm^3) were injected (IT.) with single doses of SEQ ID NO:9 dissolved in PBS (1.0 mg peptide/50 μl PBS) once a day for 5 consecutive days, and the vehicle control was saline only (0.9% NaCl).
as §1, with “All procedures were conducted according to the regulations of Laboratory Animal Care and Use Committee or Group Setup and Management and the law of Animal Protection.” left out
Tumor size was measured 3 times a week using a caliper, and the volume of tumors was calculated using the following formula: Tumor size (mm^3)=0.5×(width^2×length). […] The survival rates of tumor-bearing mice were observed and recorded continuously until all animals died. […]

[3] = tested on: B16-F10 (Murine skin malignant melanoma); assay: MTT cytotoxicity, B16-F10; format: cell-based; conditions: B16-F10, 24 hours incubation
Source text: as §2, §3
Human lung cancer lines PC9 and A549 and murine pancreatic cancer cell line Panc02 were cultured in RPMI medium supplemented with 10% fetal bovine serum and antibiotic in this embodiment. Additionally, murine hepatoma cell line Hepa 1-6, murine melanoma cell line B16-F10, murine fibrosarcoma cell line MN-11, murine mammary cancer cell line E0771 and human diploid fibroblast (HFW) were cultured in DMEM medium supplemented with 10% fetal bovine serum and antibiotic. Cells were cultured in a humidified incubator containing 5% CO2 at 37° C.
as §4

[4] = IT. 1.0 mg once a day for 5 days, vs untreated controls
[5] = IT. 1.0 mg peptide/50 μl PBS once a day for 5 consecutive days, vs saline control

## CC(C)C[C@H](NC(=O)[C@H](Cc1ccc2ccccc2c1)NC(=O)[C@H](CCCCN)NC(=O)[C@H](CC(C)C)NC(=O)[C@H](Cc1c[nH]c2ccccc12)NC(=O)[C@H](CCCCN)NC(=O)[C@H](CCCNC(=N)N)NC(=O)[C@H](Cc1c[nH]c2ccccc12)NC(=O)[C@H](CCCNC(=N)N)NC(=O)[C@H](CCCNC(=N)N)NC(=O)[C@H](CCCCN)NC(=O)[C@H](CCCCN)NC(=O)[C@H](CCCCN)NC(=O)[C@@H](N)CCCCN)C(=O)N[C@@H](C)C(=O)N[C@@H](CCCCN)C(N)=O [SEQ ID NO: 9, KKKK-RR-WRK-WLK-Nal-LA-K-NH2] (HELM PEPTIDE1{K.K.K.K.R.R.W.R.K.W.L.K.[O=C([C@H](Cc1ccc2ccccc2c1)N[*:1])[*:2]].L.A.K.[am]}$$$$V2.0; N-terminus assumed)
B16-F10 melanoma; [4]
  Survival (lifespan): extended the lifespan
B16-F10 melanoma; [5]
  Tumor growth, treated tumor (right flank): significantly inhibited tumor growth
B16-F10 melanoma; untreated left flank, peptide IT. into right flank 1.0 mg once a day for 5 days
  Tumor growth, distal tumor (left side): also inhibited
[1]
  IC50: 6.43 µM
[2]
  IC50: 9.81 µM
MN-11 fibrosarcoma; [4]
  Survival (lifespan): extended the lifespan
MN-11 fibrosarcoma; [5]
  Tumor growth, treated tumor (right side): significantly inhibited unilateral (right side) tumor growth
[3]
  IC50: 7.16 µM
